The results in this text go back to paper PMC7845643, “Predictive Rules of Efflux Inhibition and Avoidance in Pseudomonas aeruginosa” (mBio, 2021).

Converted amounts (≈) assume the structure as drawn. Where only a bound is given, the exact number is not on record here.

For assay [1], the system named is T1, Pseudomonas aeruginosa PAO1-Pore.
T1 construct: PAO1-Pore (hyperporinated, attTn7::mini-Tn7T-Gmr-lacIq-pLAC-fhuADCΔ4L)
In words: microbe, parasite or virus in culture. Details: 2-fold serial broth dilution MIC (at least 90% growth inhibition). Conditions: PAO1, read-out: MICs (mg/L) in strains: / PAO1-Pore. How it is done:
(§1) Antibacterial activities were tested using a 2-fold serial dilution broth assay as described previously ([13]). The antibacterial activities are expressed as MIC (defined as at least 90% of growth inhibition) and IC50. To follow the fate of compounds in cells and to identify descriptors associated with different permeation barriers, we first separated the contributions of the OM barrier and active efflux in measured activities of compounds. For this purpose, the bacterial growth-inhibitory activities for all Rempex compounds were analyzed in four P. aeruginosa strains: the wild-type strain, PAO1; the PΔ6 strain, lacking six efflux pumps (ΔmexAB-oprM, ΔmexCD-oprJ, ΔmexXY, ΔmexJKL, ΔmexEF-oprN, and ΔtriABC); and their hyperporinated derivatives, PAO1-Pore and PΔ6-Pore, respectively ([39]). These strains were previously shown to differ dramatically in their susceptibilities to various classes of antibiotics because of differences in efflux proficiency and permeation across the OM ([13], [15]). To normalize to the differences in target inhibition potency among compounds, our key measured parameters were efflux ratios and OM barrier ratios, defined as the 50% inhibitory concentration for the parent/mutant (IC50 parent/IC50 mutant), for efflux mutants and hyperporinated mutants, respectively (see Table S1 in the supplemental material). More specifically, the IC50 ratios for PAO1/PAO1-Pore and PΔ6/PΔ6-Pore define the contribution of the OM barrier to the activities of compounds in the presence and absence of efflux, respectively. […] Activities of only a few compounds were slightly affected by the OM. Among them are compounds 58 and 46 (Fig. 1A), whose activity is enhanced by hyperporination of efflux-deficient PΔ6-Pore cells by 16- and 8-fold, respectively.

In assay [2] the test system is T2, Pseudomonas aeruginosa PAO1.
T2 construct: PAO1 (attTn7::mini-Tn7T-Gm-lacIq-pLAC-MCS)
In words: microbe, parasite or virus in culture. Details: 2-fold serial broth dilution MIC (at least 90% growth inhibition). The note with it: PAO1, read-out: MICs (mg/L) in strains: / PAO1. The method, then:
as §1

Assay [3] has as its system T3, Pseudomonas aeruginosa PΔ6-Pore.
T3 construct: PΔ6-Pore (six efflux pumps deleted, hyperporinated with fhuADCΔ4L)
In words: microbe, parasite or virus in culture. Details: 2-fold serial broth dilution MIC (at least 90% growth inhibition). Conditions: read-out: MICs (mg/L) in strains: / D6-Pore. The method, then: as §1

Assay [4] relates to T4, Pseudomonas aeruginosa PΔ6.
T4 construct: PΔ6 (PAO1 ΔmexAB-oprM ΔmexCD-oprJ ΔmexXY ΔmexJKL ΔmexEF-oprN ΔtriABC, efflux-deficient)
The assay can be described thus: microbe, parasite or virus in culture. Details: 2-fold serial broth dilution MIC (at least 90% growth inhibition). Conditions: read-out: MICs (mg/L) in strains: / D6. How it is done: as §1

The target of assay [5] is T5, MexB (Pseudomonas aeruginosa, UniProt P52002).
T5 construct: purified MexB immobilized by amine coupling
In words: SPR (Biacore T200, CM5 chip, immobilized MexB, kinetic fit). The assay is classed as binding. In general terms: Surface plasmon resonance follows binding to a sensor surface in real time, without labels.

T5 sequence (P52002 whole entry): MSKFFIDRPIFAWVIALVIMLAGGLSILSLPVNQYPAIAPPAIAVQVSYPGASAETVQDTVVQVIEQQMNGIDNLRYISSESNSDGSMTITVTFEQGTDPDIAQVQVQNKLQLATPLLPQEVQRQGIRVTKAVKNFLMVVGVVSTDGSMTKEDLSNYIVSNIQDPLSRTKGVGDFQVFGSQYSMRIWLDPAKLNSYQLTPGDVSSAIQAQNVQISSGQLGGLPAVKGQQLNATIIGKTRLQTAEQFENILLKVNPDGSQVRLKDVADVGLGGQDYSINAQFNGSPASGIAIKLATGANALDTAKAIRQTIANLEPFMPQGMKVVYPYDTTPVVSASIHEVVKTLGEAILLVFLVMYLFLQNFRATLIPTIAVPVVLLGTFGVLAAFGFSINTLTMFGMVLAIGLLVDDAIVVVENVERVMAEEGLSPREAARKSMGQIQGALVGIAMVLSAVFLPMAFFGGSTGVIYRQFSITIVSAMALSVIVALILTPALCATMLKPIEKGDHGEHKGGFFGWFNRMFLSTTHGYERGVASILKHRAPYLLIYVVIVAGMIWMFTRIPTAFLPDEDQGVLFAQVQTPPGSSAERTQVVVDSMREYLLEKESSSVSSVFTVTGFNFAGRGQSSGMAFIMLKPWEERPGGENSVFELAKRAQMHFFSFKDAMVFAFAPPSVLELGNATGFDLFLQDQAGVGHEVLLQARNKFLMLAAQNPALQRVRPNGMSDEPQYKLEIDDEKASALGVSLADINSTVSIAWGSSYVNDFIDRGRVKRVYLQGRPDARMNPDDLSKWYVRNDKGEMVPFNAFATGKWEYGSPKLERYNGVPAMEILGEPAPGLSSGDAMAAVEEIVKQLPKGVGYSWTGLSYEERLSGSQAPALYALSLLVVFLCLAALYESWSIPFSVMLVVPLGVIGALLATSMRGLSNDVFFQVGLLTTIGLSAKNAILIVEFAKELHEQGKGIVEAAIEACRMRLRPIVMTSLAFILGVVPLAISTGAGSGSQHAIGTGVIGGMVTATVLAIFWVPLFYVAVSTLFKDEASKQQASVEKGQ

Take `Cc1cc(O)c(C(=O)N[C@@H](C(=O)N[C@@H]2C(=O)N3C(C(=O)O)=C(CSc4nnnn4C)CS[C@H]23)c2ccc(O)cc2)cn1` [OU-031452, cefpiramide]: the MIC is above 1000 mg/L in assay [1], above 1000 mg/L in assay [2], 250 mg/L (≈ 408 µM) in assay [3] and above 1000 mg/L in assay [4].

As to `Nc1nc(/C(=C/CC(=O)O)C(=O)N[C@@H]2C(=O)N3C(C(=O)O)=CCS[C@H]23)cs1` [OU-668, ceftibuten], the MIC in assay [1] is 2000 mg/L (≈ 4870 µM); in assay [2] it was above 2000 mg/L; in assay [3] it was 128 mg/L (≈ 312 µM); in assay [4] it was 1000 mg/L (≈ 2440 µM).

For the molecule `O=C(O)C1=C(CSc2nnnn2CS(=O)(=O)O)CS[C@@H]2[C@H](NC(=O)[C@H](O)c3ccccc3)C(=O)N12` [OU-666, cefonicid], the MIC in assay [1] was determined as 3.9 mg/L (≈ 7.19 µM); in assay [2], 62.5 mg/L (≈ 115 µM); in assay [3] it was 3.9 mg/L (≈ 7.19 µM).

With `CCN1CCN(C(=O)N[C@@H](C(=O)N[C@@H]2C(=O)N3C(C(=O)O)=C(CSc4nnnn4C)CS[C@H]23)c2ccc(O)cc2)C(=O)C1=O` [OU-634, cefoperazone], the results for the MIC in assay [1], in assay [2] and in assay [3] were 0.97 mg/L (≈ 1.5 µM), 3.9 mg/L (≈ 6.04 µM) and 0.97 mg/L (≈ 1.5 µM), respectively.

Consider `C[N+](CCN)(CCN)CCC[C@H](N)C(=O)N[C@H](CCc1ccc(C(F)(F)F)cc1)C(=O)Nc1cnc2ccccc2c1` [compound 17], for which binding in assay [5] was put at a Kd of 24.2 µM.

For `CO/N=C(\C(=O)N[C@@H]1C(=O)N2C(C(=O)O)=C(CSc3nc(=O)c(O)nn3C)CS[C@H]12)c1csc(N)n1` [OU-640, ceftriaxone], the MIC in assay [1] is 0.97 mg/L (≈ 1.75 µM); in assay [2] it was 15.6 mg/L (≈ 28.1 µM); in assay [3], 0.06 mg/L (≈ 0.108 µM); in assay [4], 3.9 mg/L (≈ 7.03 µM).

On to `CO[C@@]1(NC(=O)C2SC(=C(C(N)=O)C(=O)O)S2)C(=O)N2C(C(=O)O)=C(CSc3nnnn3C)CS[C@@H]21` (stereo partly drawn) [OU-654, cefotetan], for which the MIC in assay [1] is 200 mg/L (≈ 347 µM); in assay [2] it was above 400 mg/L; in assay [3], 12.5 mg/L (≈ 21.7 µM); in assay [4], 100 mg/L (≈ 174 µM).

As for `CO[C@@]1(NC(=O)C(C(=O)O)c2ccc(O)cc2)C(=O)N2C(C(=O)O)=C(CSc3nnnn3C)CO[C@@H]21` (stereo partly drawn) [OU-672, moxalactam], the MIC is 15.6 mg/L (≈ 30 µM) in assay [1], 62.5 mg/L (≈ 120 µM) in assay [2], 0.97 mg/L (≈ 1.86 µM) in assay [3] and 62.5 mg/L (≈ 120 µM) in assay [4].

In general, Kd refers to the equilibrium constant for the complex coming apart. A lower Kd goes with higher affinity.
